# Measured values: patent US20050239656A1, “Pyridine compounds or salts thereof and herbicides containing the same” (priority 2002, published 2005)
# Assays:
# green foxtail [1] = assay: Test Example 1: foliage treatment, upland pot test; assay type: in vivo, Setaria viridis L.; conditions: active ingredient 500 g/ha, observed 18th to 23rd day, 0 = non-treated, 100 = complete kill
# corn [2] = assay: Test Example 1: foliage treatment, upland pot test; assay type: in vivo, Zea mays L.; conditions: crop, active ingredient 500 g/ha, observed 18th to 23rd day, 0 = non-treated, 100 = complete kill
# In short: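 In this upland pot foliage test, corn plants at 2.1 to 3.2 leaf stages were sprayed by a small size sprayer. The spray was a conventionally formulated wettable powder or emulsifiable concentrate weighed to a set active ingredient amount, diluted in water at 500 L/ha, plus 0.1% (v/v) agricultural spreader. Visual assessment on days 18 to 23 gave growth controlling degree (%), where 0 equals untreated and 100 means complete kill.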
# redroot pigweed [3] = assay: Test Example 1: foliage treatment, upland pot test; assay type: in vivo, Amaranthus retroflexus L.; conditions: active ingredient 500 g/ha, observed 18th to 23rd day, 0 = non-treated, 100 = complete kill
# green foxtail [4] = assay: Test Example 2: soil surface treatment, upland pot test; assay type: in vivo, Setaria viridis L.; conditions: active ingredient 500 g/ha, observed 20th to 28th day
# In short: (§1)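 Visual growth-control ratings (0 = untreated, 100 = complete kill) were taken 20–28 days after soil surface application. The spray was made one day post-sowing in upland soil pots, using formulated compound diluted with water at 1,500 L/ha at a set active ingredient rate.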
# barnyardgrass [5] = assay: as above; assay type: in vivo, Echinochloa crus-galli L.; conditions: active ingredient 500 g/ha, observed 20th to 28th day
# In short: as §1
# redroot pigweed [6] = assay: as above; assay type: in vivo, Amaranthus retroflexus L.; conditions: active ingredient 500 g/ha, observed 20th to 28th day
# In short: as §1
# soybean [7] = assay: Test Example 1: foliage treatment, upland pot test; assay type: in vivo, Glycine max Merr.; conditions: crop, active ingredient 500 g/ha, observed 18th to 23rd day, 0 = non-treated, 100 = complete kill
# In short: (§2)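 Upland pot test, foliar. Soybean 0.1–0.4 / wheat 1.3–2.4 / rice 1.2–2.6 / barnyardgrass 1.3–2.8 leaf stage at spraying; 500 L/ha carrier, 0.1% (v/v) spreader. Visual % control, 0 untreated to 100 dead, days 18–23.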
# corn [8] = assay: Test Example 2: soil surface treatment, upland pot test; assay type: in vivo, Zea mays L.; conditions: active ingredient 500 g/ha, observed 20th to 28th day
# In short: as §1
# barnyardgrass [9] = assay: Test Example 1: foliage treatment, upland pot test; assay type: in vivo, Echinochloa crus-galli L.; conditions: active ingredient 500 g/ha, observed 18th to 23rd day, 0 = non-treated, 100 = complete kill
# In short: as §2
# soybean [10] = assay: Test Example 2: soil surface treatment, upland pot test; assay type: in vivo, Glycine max Merr.; conditions: active ingredient 500 g/ha, observed 20th to 28th day
# In short: as §1
# prickly sida [11] = assay: as above; assay type: in vivo, Sida spinosa L.; conditions: active ingredient 500 g/ha, observed 20th to 28th day
# In short: as §1
# rice (var. Nihonbare) = assay: Test Example 3: paddy pot test, transplanted rice; assay type: in vivo, Oryza sativa L.; conditions: applied 4th day after transplantation, visually observed 21st day after application, 0 = non-treated, 100 = complete kill
# In short: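 Rice (var. Nihonbare) at 2 leaf stage transplanted 3 cm deep into puddled paddy soil under 3–4 cm flooding; on day 4 after transplanting, diluted wettable powder or emulsifiable concentrate applied by pipette under submerged conditions at a set active-ingredient dose. Growth scored visually 21 days after application, 0 (untreated) to 100 (complete kill) %.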
# crabgrass [12] = assay: Test Example 2: soil surface treatment, upland pot test; assay type: in vivo, Digitaria sanguinalis L.; conditions: active ingredient 500 g/ha, observed 20th to 28th day
# In short: as §1
# barnyardgrass [13] = assay: Test Example 3: paddy pot test, application under submerged conditions; assay type: in vivo, Echinochloa crus-galli L.; conditions: submerged application at 0.5 leaf stage, visually observed 14 days after application, 0 = non-treated, 100 = complete kill
# In short: (§3)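 Visual growth-control rating (0 = untreated, 100 = complete kill) 14 days after treatment. The formulated compound, as a diluted wettable powder or emulsifiable concentrate, went into 3–4 cm flood water at a predetermined active-ingredient dose once the weeds reached 0.5 leaf stage (wapato: primary leaf stage).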
# japanese bulrush = assay: as above; assay type: in vivo, Scirpus juncoides; conditions: submerged application at 0.5 leaf stage, visually observed 14 days after application, 0 = non-treated, 100 = complete kill
# In short: as §3
# rice [14] = assay: Test Example 1: foliage treatment, upland pot test; assay type: in vivo, Oryza sativa L.; conditions: crop, active ingredient 500 g/ha, observed 18th to 23rd day, 0 = non-treated, 100 = complete kill
# In short: as §2
# rice [15] = assay: Test Example 2: soil surface treatment, upland pot test; assay type: in vivo, Oryza sativa L.; conditions: active ingredient 500 g/ha, observed 20th to 28th day
# In short: as §1
# prickly sida [16] = assay: Test Example 1: foliage treatment, upland pot test; assay type: in vivo, Sida spinosa L.; conditions: active ingredient 500 g/ha, observed 18th to 23rd day, 0 = non-treated, 100 = complete kill
# crabgrass [17] = assay: Test Example 1: foliage treatment, upland pot test; assay type: in vivo, Digitaria sanguinalis L.; conditions: active ingredient 500 g/ha, observed 18th to 23rd day, 0 = non-treated, 100 = complete kill
# velvetleaf [18] = assay: Test Example 2: soil surface treatment, upland pot test; assay type: in vivo, Abutilon theophrasti MEDIC.; conditions: active ingredient 500 g/ha, observed 20th to 28th day
# In short: as §1
# japanese ribbon wapato = assay: Test Example 3: paddy pot test, application under submerged conditions; assay type: in vivo, Sagittaria pygniaea; conditions: submerged application at primary leaf stage, visually observed 14 days after application, 0 = non-treated, 100 = complete kill
# In short: as §3
# velvetleaf [19] = assay: Test Example 1: foliage treatment, upland pot test; assay type: in vivo, Abutilon theophrasti MEDIC.; conditions: active ingredient 500 g/ha, observed 18th to 23rd day, 0 = non-treated, 100 = complete kill
Structure (SMILES),Growth controlling degree (%) Green foxtail (green foxtail [1]),Growth controlling degree (%) Corn (corn [2]),Growth controlling degree (%) Redroot pigweed (redroot pigweed [3]),Growth controlling degree (%) Green foxtail (green foxtail [4]),Growth controlling degree (%) Barnyardgrass (barnyardgrass [5]),Growth controlling degree (%) Redroot pigweed (redroot pigweed [6]),Growth controlling degree (%) Soybean (soybean [7]),Growth controlling degree (%) Corn (corn [8]),Growth controlling degree (%) Barnyardgrass (barnyardgrass [9]),Growth controlling degree (%) Soyabean (soybean [10]),Growth controlling degree (%) Prickly sida (prickly sida [11]),Growth controlling degree (%) Crabgrass (crabgrass [12]),Growth controlling degree (%) Rice (rice [14]),Growth controlling degree (%) Rice (rice [15]),Growth controlling degree (%) Prickly sida (prickly sida [16]),Growth controlling degree (%) Crabgrass (crabgrass [17]),Growth controlling degree (%) Velvetleaf (velvetleaf [18]),Growth controlling degree (%) Velvetleaf (velvetleaf [19]),Growth controlling degree (%) Rice (rice (var. Nihonbare); active ingredient 125 g/ha),Growth controlling degree (%) Barnyardgrass (barnyardgrass [13]; active ingredient 125 g/ha),also measured
CC(C)C(c1cnccc1C(F)(F)F)N(C)C(=O)Cc1ccc(F)c(C(F)(F)F)c1 (centres unmarked) [I-61],90%,30%,70%,70%,20%,70%,70%,10%,30%,20%,98%,80%,30%,10%,80%,80%,60%,80%,–,–,Growth controlling degree (%) Rice (rice (var. Nihonbare); active ingredient 250 g/ha): 10%; Growth controlling degree (%) Barnyardgrass (barnyardgrass [13]; active ingredient 250 g/ha): 95%; Growth controlling degree (%) Japanese bulrush (japanese bulrush; active ingredient 250 g/ha): 0%; Growth controlling degree (%) Japanese ribbon wapato (japanese ribbon wapato; active ingredient 250 g/ha): 20%
CC(C)C(c1cnccc1C(F)(F)F)N(C)C(=O)Cc1ccc(C(F)(F)F)c(F)c1 (centres unmarked) [I-62],40%,10%,80%,60%,60%,70%,30%,10%,20%,10%,98%,98%,10%,10%,70%,60%,50%,90%,–,–,Growth controlling degree (%) Rice (rice (var. Nihonbare); active ingredient 250 g/ha): 20%; Growth controlling degree (%) Barnyardgrass (barnyardgrass [13]; active ingredient 250 g/ha): 98%; Growth controlling degree (%) Japanese bulrush (japanese bulrush; active ingredient 250 g/ha): 30%; Growth controlling degree (%) Japanese ribbon wapato (japanese ribbon wapato; active ingredient 250 g/ha): 0%
CC(C)C(c1cnccc1Cl)N(C)C(=O)Cc1cccc(F)c1 (centres unmarked) [I-65],10%,0%,90%,60%,60%,50%,20%,30%,10%,0%,10%,90%,20%,20%,80%,60%,10%,70%,0%,98%,Growth controlling degree (%) Japanese bulrush (japanese bulrush; active ingredient 125 g/ha): 90%; Growth controlling degree (%) Japanese ribbon wapato (japanese ribbon wapato; active ingredient 125 g/ha): 60%
CC(C)C(c1cnccc1Cl)N(C)C(=O)Cc1ccccc1F (centres unmarked) [I-66],70%,40%,50%,50%,80%,60%,50%,10%,20%,50%,30%,90%,10%,40%,60%,70%,40%,70%,10%,98%,Growth controlling degree (%) Japanese bulrush (japanese bulrush; active ingredient 125 g/ha): 90%; Growth controlling degree (%) Japanese ribbon wapato (japanese ribbon wapato; active ingredient 125 g/ha): 10%
CC(C)C(c1cnccc1Cl)N(C)C(=O)Cc1ccc(F)cc1 (centres unmarked) [I-67],70%,0%,60%,95%,90%,40%,50%,40%,50%,10%,80%,95%,10%,10%,80%,90%,60%,60%,0%,100%,Growth controlling degree (%) Japanese bulrush (japanese bulrush; active ingredient 125 g/ha): 98%; Growth controlling degree (%) Japanese ribbon wapato (japanese ribbon wapato; active ingredient 125 g/ha): 60%
